Assay results as given in patent publication US6994954B2, “System for organ and tissue preservation and hypothermic blood substitution” (Organ Recovery Systems, Inc., priority 2000, dated 2006).

Tests used:
A10 smooth muscle cells = experiment: Cryopreservation of A10 cells with DMSO in vehicle solution, Alamar Blue; assay type: cell-based; conditions: freezing and thawing
Procedure: (§1) The same system as that described above for cells in microtiter plates was used to evaluate a preferred embodiment of the exemplary High-K Intracellular-base solution as a new carrier solution for cryoprotective additives (CPA). Specifically, a phosphate-free formulation of the new High-K solution was prepared to avoid the known precipitation of divalent cation phosphates in the presence of the cryoprotectant DMSO at low temperatures. Cell survival was compared after freezing and thawing in the presence of a range of concentrations of DMSO prepared in either the new phosphate-free HK-cryoprotectant vehicle solution (HK-CV), or EuroCollins medium. EuroCollins is an organ preservation solution that has also been used in the field of cryobiology as a vehicle solution for cryoprotectants.
(§2) Cells were plated at 2×10^4 cells/well and after overnight incubation regular culture medium was replaced with the experimental CPA mixtures using the following protocol: Plates were cooled to −80° C. at a controlled rate (1° C./min) and stored overnight at −135° C. The plates were thawed using a two-step warming protocol and the CPA was diluted using mannitol as an osmotic buffer. Cell viability was assessed using the Alamar Blue assay of cellular metabolic activity at 37° C. FIGS. 15 and 16 show the comparative viability of two cell types after cryopreservation in the respective media. […]

[1] = test system: bovine corneal endothelial (BCE) cells; experiment: Cryopreservation of BCE cells with DMSO in vehicle solution, Alamar Blue; assay type: cell-based; conditions: freezing and thawing
Procedure: as §1, §2

C[S+](C)[O-] [DMSO, Dimethylsulfoxide]
DMSO concentration giving optimum survival (A10 smooth muscle cells): 1 to 2 M
DMSO concentration giving optimum survival [1]: 1 to 2 M
